Laboratory results from patent US10160755B2 (Plexxikon Inc., priority 2015, dated 2018).

Key:
FLT3-ITD = biological target: T1, FLT3-ITD (Homo sapiens, UniProt P36888); assay: FLT3-ITD biochemical kinase assay (AlphaScreen)
T1 construct: FLT3-ITD; Invitrogen #PV6190
T1 sequence (P36888 1-993): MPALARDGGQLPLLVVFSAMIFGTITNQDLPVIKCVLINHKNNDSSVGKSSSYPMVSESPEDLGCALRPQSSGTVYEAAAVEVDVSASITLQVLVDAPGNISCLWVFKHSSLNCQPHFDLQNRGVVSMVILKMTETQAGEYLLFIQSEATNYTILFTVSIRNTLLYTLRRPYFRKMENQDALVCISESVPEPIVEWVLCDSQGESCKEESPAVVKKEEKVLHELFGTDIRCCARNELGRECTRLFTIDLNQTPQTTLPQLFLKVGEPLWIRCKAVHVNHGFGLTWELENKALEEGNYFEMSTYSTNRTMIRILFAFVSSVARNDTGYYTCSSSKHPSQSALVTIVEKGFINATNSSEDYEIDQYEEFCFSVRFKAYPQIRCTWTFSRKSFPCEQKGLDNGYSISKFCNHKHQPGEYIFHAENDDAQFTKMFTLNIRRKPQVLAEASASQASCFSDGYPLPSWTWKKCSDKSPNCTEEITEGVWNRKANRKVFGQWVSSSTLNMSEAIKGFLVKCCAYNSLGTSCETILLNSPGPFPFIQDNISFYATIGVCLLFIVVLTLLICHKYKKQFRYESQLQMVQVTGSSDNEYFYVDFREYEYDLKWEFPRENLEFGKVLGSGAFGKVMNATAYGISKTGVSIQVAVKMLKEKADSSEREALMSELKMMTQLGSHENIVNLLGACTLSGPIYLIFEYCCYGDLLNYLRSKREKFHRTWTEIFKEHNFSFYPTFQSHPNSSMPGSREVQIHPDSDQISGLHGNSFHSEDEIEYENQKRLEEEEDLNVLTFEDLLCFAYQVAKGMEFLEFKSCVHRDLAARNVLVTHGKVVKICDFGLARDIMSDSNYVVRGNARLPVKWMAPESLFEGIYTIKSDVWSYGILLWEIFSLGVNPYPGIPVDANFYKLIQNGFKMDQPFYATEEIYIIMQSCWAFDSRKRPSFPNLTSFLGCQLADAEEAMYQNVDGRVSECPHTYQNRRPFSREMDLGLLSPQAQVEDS
Summary of the method: (§1)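 IC50 values reflect loss of AlphaScreen proximity signal (excitation 680 nm, emission 580 nm) from tyrosine phosphorylation of a biotinylated poly(Glu4-Tyr) substrate at 30 nM. ATP was 10 μM for the D835Y mutant and 100 μM for ITD. Detection used PY20 acceptor beads.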

FLT3-D835Y = biological target: T2, FLT3-D835Y (Homo sapiens, UniProt P36888, D835Y); assay: FLT3-D835Y biochemical kinase assay (AlphaScreen)
T2 construct: purchased Invitrogen PV3967
T2 sequence (P36888 27-993 D835Y): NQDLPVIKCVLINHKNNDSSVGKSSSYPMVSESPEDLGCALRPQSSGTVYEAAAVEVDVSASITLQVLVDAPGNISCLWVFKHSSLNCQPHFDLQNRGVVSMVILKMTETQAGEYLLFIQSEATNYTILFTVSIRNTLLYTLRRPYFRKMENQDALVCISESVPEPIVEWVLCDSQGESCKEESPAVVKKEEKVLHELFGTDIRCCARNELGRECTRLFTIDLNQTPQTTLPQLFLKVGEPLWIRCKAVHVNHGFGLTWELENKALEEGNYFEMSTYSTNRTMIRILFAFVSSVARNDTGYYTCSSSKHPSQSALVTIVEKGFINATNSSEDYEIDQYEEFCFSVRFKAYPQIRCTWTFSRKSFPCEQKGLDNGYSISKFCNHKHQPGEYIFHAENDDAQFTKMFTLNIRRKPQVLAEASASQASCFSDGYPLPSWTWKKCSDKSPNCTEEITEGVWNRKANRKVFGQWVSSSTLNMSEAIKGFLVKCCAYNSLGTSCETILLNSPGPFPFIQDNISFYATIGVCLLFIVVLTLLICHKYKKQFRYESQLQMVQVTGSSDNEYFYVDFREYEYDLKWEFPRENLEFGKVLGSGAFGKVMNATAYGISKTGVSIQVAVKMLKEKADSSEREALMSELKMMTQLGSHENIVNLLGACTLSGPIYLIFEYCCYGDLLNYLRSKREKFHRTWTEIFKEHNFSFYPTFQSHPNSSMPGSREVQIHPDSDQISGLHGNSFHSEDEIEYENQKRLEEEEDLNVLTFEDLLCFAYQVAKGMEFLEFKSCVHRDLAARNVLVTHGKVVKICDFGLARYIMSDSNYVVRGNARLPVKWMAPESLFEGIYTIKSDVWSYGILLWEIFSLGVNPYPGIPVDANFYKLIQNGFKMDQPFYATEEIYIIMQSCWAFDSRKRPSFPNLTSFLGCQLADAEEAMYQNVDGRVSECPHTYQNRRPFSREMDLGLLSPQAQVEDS
Summary of the method: as §1

Structure (SMILES) | IC50 (FLT3-ITD) [µM] | IC50 (FLT3-D835Y) [µM]
Cc1ncc(C#Cc2cnc3[nH]cc(-c4ccc5ncn(C(C)(C)C)c5c4)c3c2)cn1 [P-383, 1-tert-butyl-6-[5-[2-(2-methylpyrimidin-5-yl)ethynyl]-1H-pyrrolo[2,3-b]pyridin-3-yl]benzimidazole] | 0.0001 to 1 | 0.0001 to 1
Cc1ncc(C#Cc2cnc3[nH]cc(-c4ccc5ncn(C(C)(C)C)c5c4)c3n2)cn1 [P-284, 7-(3-tert-butylbenzimidazol-5-yl)-2-[2-(2-methylpyrimidin-5-yl)ethynyl]-5H-pyrrolo[2,3-b]pyrazine] | 0.0001 to 1 | 0.0001 to 1
c1cc(-c2cnc3[nH]cc(-c4ccc5ncn(C6CCCNC6)c5c4)c3n2)cc(N2CCCCC2)c1 (stereo not shown) [P-337, 7-[3-(3-piperidyl)benzimidazol-5-yl]-2-[3-(1-piperidyl)phenyl]-5H-pyrrolo[2,3-b]pyrazine] | 0.0001 to 1 | 0.0001 to 1
CC(C)(C)n1cnc2ccc(-c3c[nH]c4ncc(-c5ccnc(C#N)c5)cc34)cc21 [P-291, 4-[3-(3-tert-butylbenzimidazol-5-yl)-1H-pyrrolo[2,3-b]pyridin-5-yl]pyridine-2-carbonitrile] | 0.0001 to 1 | 0.0001 to 1
c1cc(-c2cnc3[nH]cc(-c4ccc5ncn(C6CCCNC6)c5c4)c3n2)cc(N2CCCCC2)n1 (stereo not shown) [P-339, 7-[3-(3-piperidyl)benzimidazol-5-yl]-2-[2-(1-piperidyl)-4-pyridyl]-5H-pyrrolo[2,3-b]pyrazine] | 0.0001 to 1 | 0.0001 to 1
O=S1(=O)CCCN1c1cc(-c2cnc3[nH]cc(-c4ccc5ncn(C6CCCNC6)c5c4)c3n2)ccn1 (stereo not shown) [P-295, 2-[4-[7-[3-(3-piperidyl)benzimidazol-5-yl]-5H-pyrrolo[2,3-b]pyrazin-2-yl]-2-pyridyl]-1,2-thiazolidine 1,1-dioxide] | 0.0001 to 1 | 0.0001 to 1
CC(C)(C)n1cnc2ccc(-c3c[nH]c4ncc(-c5ccnc(N6CCCS6(=O)=O)c5)nc34)cc21 [P-294, 2-[4-[7-(3-tert-butylbenzimidazol-5-yl)-5H-pyrrolo[2,3-b]pyrazin-2-yl]-2-pyridyl]-1,2-thiazolidine 1,1-dioxide] | 0.0001 to 1 | 0.0001 to 1
CCN1CCN(c2ccc(-c3cnc4[nH]cc(-c5ccc6ncn(C(C)(C)C)c6c5)c4n3)cc2)CC1 [P-358, 7-(3-tert-butylbenzimidazol-5-yl)-2-[4-(4-ethylpiperazin-1-yl)phenyl]-5H-pyrrolo[2,3-b]pyrazine] | 0.0001 to 1 | 0.0001 to 1
COc1cc(C#Cc2cnc3[nH]cc(-c4ccc5ncn(C6CCCNC6)c5c4)c3n2)ccn1 (stereo not shown) [P-280, 2-((2-methoxypyridin-4-yl)ethynyl)-7-(1-(piperidin-3-yl)-1H-benzo[d]imidazol-6-yl)-5H-pyrrolo[2,3-b]pyrazine] | 0.0001 to 1 | 0.0001 to 1
CC(C)(C)n1cnc2ccc(-c3c[nH]c4ncc(-c5ccc(N6CCOCC6)nc5)cc34)cc21 [P-322, 4-[5-[3-(3-tert-butylbenzimidazol-5-yl)-1H-pyrrolo[2,3-b]pyridin-5-yl]-2-pyridyl]morpholine] | 0.0001 to 1 | 0.0001 to 1
O=S1(=O)CCCN1c1cc(-c2cnc3[nH]cc(-c4ccc5ncn(C6CCCNC6)c5c4)c3c2)ccn1 (stereo not shown) [P-311, 2-[4-[3-[3-(3-piperidyl)benzimidazol-5-yl]-1H-pyrrolo[2,3-b]pyridin-5-yl]-2-pyridyl]-1,2-thiazolidine 1,1-dioxide] | 0.0001 to 1 | 0.0001 to 1
CC(C)(O)c1ncc(-c2cnc3[nH]cc(-c4ccc5ncn(C(C)(C)C)c5c4)c3n2)cn1 [P-380, 2-[5-[7-(3-tert-butylbenzimidazol-5-yl)-5H-pyrrolo[2,3-b]pyrazin-2-yl]pyrimidin-2-yl]propan-2-ol] | 0.0001 to 1 | 0.0001 to 1
c1cc(N2CCCCC2)ccc1-c1cnc2[nH]cc(-c3ccc4ncn(C5CCCNC5)c4c3)c2n1 (stereo not shown) [P-346, 7-[3-(3-piperidyl)benzimidazol-5-yl]-2-[4-(1-piperidyl)phenyl]-5H-pyrrolo[2,3-b]pyrazine] | 0.0001 to 1 | 0.0001 to 1
O=S1(=O)CCCCN1c1cc(-c2cnc3[nH]cc(-c4ccc5ncn(C6CCCNC6)c5c4)c3n2)ccn1 (stereo not shown) [P-310, 2-[4-[7-[3-(3-piperidyl)benzimidazol-5-yl]-5H-pyrrolo[2,3-b]pyrazin-2-yl]-2-pyridyl]thiazinane 1,1-dioxide] | 0.0001 to 1 | 0.0001 to 1
CC(C)(C)n1cnc2ccc(-c3n[nH]c4ncc(-c5cccc(N6CCCS6(=O)=O)c5)cc34)cc21 [P-296, 2-[3-[3-(3-tert-butylbenzimidazol-5-yl)-1H-pyrazolo[3,4-b]pyridin-5-yl]phenyl]-1,2-thiazolidine 1,1-dioxide] | 0.0001 to 1 | 0.0001 to 1
c1cc(-c2cnc3[nH]cc(-c4ccc5ncn(C6CCCNC6)c5c4)c3c2)cc(N2CCOCC2)c1 (stereo not shown) [P-317, 4-[3-[3-[3-(3-piperidyl)benzimidazol-5-yl]-1H-pyrrolo[2,3-b]pyridin-5-yl]phenyl]morpholine] | 0.0001 to 1 | 0.0001 to 1
COc1cnc2[nH]cc(-c3ccc4ncn(C(C)(C)C)c4c3)c2c1 [P-074, 1-tert-butyl-6-(5-methoxy-1H-pyrrolo[2,3-b]pyridin-3-yl)benzimidazole] | – | 0.0001 to 1
COc1cc(-c2cc3c(-c4ccc5ncn(C(C)(C)C)c5c4)c[nH]c3nn2)ccn1 [P-315, 5-(3-tert-butylbenzimidazol-5-yl)-3-(2-methoxy-4-pyridyl)-7H-pyrrolo[2,3-c]pyridazine] | 0.0001 to 1 | 0.0001 to 1
c1cc(N2CCOCC2)ncc1-c1cnc2[nH]cc(-c3ccc4ncn(C5CCCNC5)c4c3)c2n1 (stereo not shown) [P-325, 4-[5-[7-[3-(3-piperidyl)benzimidazol-5-yl]-5H-pyrrolo[2,3-b]pyrazin-2-yl]-2-pyridyl]morpholine] | 0.0001 to 1 | 0.0001 to 1
c1cc(N2CCOCC2)ncc1-c1cnc2[nH]cc(-c3ccc4ncn(C5CCCNC5)c4c3)c2c1 (stereo not shown) [P-321, 4-[5-[3-[3-(3-piperidyl)benzimidazol-5-yl]-1H-pyrrolo[2,3-b]pyridin-5-yl]-2-pyridyl]morpholine] | 0.0001 to 1 | 0.0001 to 1
COc1ncc(-c2cnc3[nH]cc(-c4ccc5ncn(C(C)(C)C)c5c4)c3n2)cc1C#N [P-405, 5-[7-(3-tert-butylbenzimidazol-5-yl)-5H-pyrrolo[2,3-b]pyrazin-2-yl]-2-methoxy-pyridine-3-carbonitrile] | 0.0001 to 1 | –
CC(C)(C)n1cnc2ccc(-c3c[nH]c4ncc(-c5cnc(F)c(F)c5)nc34)cc21 [P-390, 7-(3-tert-butylbenzimidazol-5-yl)-2-(5,6-difluoro-3-pyridyl)-5H-pyrrolo[2,3-b]pyrazine] | 1 to 10 | –
COc1cnc2[nH]cc(-c3ccc4ncn(-c5ccccc5)c4c3)c2c1 [P-068, 5-methoxy-3-(3-phenylbenzimidazol-5-yl)-1H-pyrrolo[2,3-b]pyridine] | – | 0.0001 to 1
CC(C)(C)n1cnc2ccc(-c3c[nH]c4ncc(-c5ccnc(C#N)c5)nc34)cc21 [P-301, 4-[7-(3-tert-butylbenzimidazol-5-yl)-5H-pyrrolo[2,3-b]pyrazin-2-yl]pyridine-2-carbonitrile] | – | 0.0001 to 1
